These are literature values, as cited in patent publication US20070185067A1, “Ciclesonide and glycopyrronium combination” (Altana Pharma AG, priority 2004, published 2007).

Test in data set [1]: not given
This is another data set of the same source.

For data set [2] the following is noted: compared with budesonide.

Take `CC(C)C(=O)OCC(=O)[C@@]12O[C@H](C3CCCCC3)O[C@@H]1C[C@H]1[C@@H]3CCC4=CC(=O)C=C[C@]4(C)[C@H]3[C@@H](O)C[C@@]12C` [Ciclesonide, [11β,16α(R)]-16,17-[(Cyclohexylmethylen)bis(oxy)]-11-hydroxy-21-(2-methyl-1-oxo-prop-oxy)pregna-1,4-dien-3,20-dion]: the “metabolism by liver oxidases” value (liver oxidases) is reported as “very high”. Further, where the note is “lungs”, the “concentration of the drug in the lungs” value is “high”. Also, the “absorption after oral administration” value (oral administration) is on record as “only moderately absorbed”. In addition, the plasma half-life entry (plasma) is given as “low plasma half-life”. Besides, the “systemic activity relative to budesonide” value in data set [1] (compared with budesonide) is “three times lower than that of budesonide”. In addition, in data set [1] (in vivo), the systemic activity entry is reported as “low systemic activity”. Also, the “anti-inflammatory activity relative to budesonide” value in data set [2] is reported as “higher”.
